From article PMC4734766, “Pentamidine Is Not a Permeant but a Nanomolar Inhibitor of the Trypanosoma brucei Aquaglyceroporin-2” (PLoS Pathogens, 2016)
Read-outs that look alike come from different tables or passages of the source.

How the values were obtained:
TbAQP2 [1] = target: T1, TbAQP2 (Trypanosoma brucei brucei, UniProt Q6ZXT3); conditions: not told, pH 7.2
T1 sequence (Q6ZXT3 1-312): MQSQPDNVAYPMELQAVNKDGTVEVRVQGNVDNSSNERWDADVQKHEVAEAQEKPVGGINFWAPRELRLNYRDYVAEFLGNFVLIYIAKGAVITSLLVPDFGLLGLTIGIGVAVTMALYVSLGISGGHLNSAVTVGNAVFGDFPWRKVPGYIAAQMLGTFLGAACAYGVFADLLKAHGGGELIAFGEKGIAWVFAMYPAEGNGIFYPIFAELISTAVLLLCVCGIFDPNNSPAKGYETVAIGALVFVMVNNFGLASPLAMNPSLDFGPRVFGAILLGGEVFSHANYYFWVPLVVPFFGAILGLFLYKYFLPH

TbAQP2 [2] = target: T1, TbAQP2; conditions: pH 5.5
TbAQP3 [3] = target: T2, TbAQP3 (Trypanosoma brucei brucei, UniProt Q6ZXT2)
other AQPs = conditions: covalent cysteine-modification; cited from earlier work
[4] = cited from earlier work
TbAQP2 [5] = target: T1, TbAQP2; assay: cell-based
TbAQP2 [6] = target: T1, TbAQP2
yeast [7] = assay: Phenotypic yeast growth assay, pentamidine susceptibility on YPG (glycerol) media; type: cell-based, Saccharomyces cerevisiae; conditions: pentamidine isethionate 1 or 10 μg ml–1, compared with non-expressing and TbAQP3 expressing cells
[8] = type: physicochemical; conditions: prohibits a sufficiently concentrated gradient in the light-scattering assay
Description: Next, we employed a biophysical light-scattering assay for TbAQP2 permeability. We expressed TbAQP2 in a yeast strain that lacks the endogenous aquaglyceroporin (Δfps1), prepared protoplasts, and challenged them by a hypertonic, test solute-containing buffer. In an initial rapid phase, the protoplasts will release water following the outward osmotic gradient and shrink as indicated by an increase in light scattering. In the second slower phase, volume will be regained if the test solute can pass TbAQP2 and enter the protoplasts. […] We used instead two pairs of test solutes, glycerol/3-aminopropane-1,2-diol and urea/formamidine, of which glycerol and urea are established permeants of TbAQP2 [11], whereas the respective partners are bioisosteric nitrogen-derivatives, which are positively charged at neutral pH (Fig 1F). […] Formamidine is too strong a base (pKa 13) to be amenable to deprotonation in aqueous solution. […] The lack of permeability for the charged compounds is not due to molecule size, because formamidine is even smaller than urea. […] We conclude that organic cations fail to traverse the TbAQP2 channel.

TbAQP3 [9] = target: T2, TbAQP3; conditions: up to 500 μM pentamidine added 10 min prior to the assay
yeast [10] = conditions: cited from earlier work
[11] = tested on: T. brucei expressing mutant TbAQP2 (GFPAQP2 L264R); assay: alamarBlue EC50 assay, aqp2-null strain expressing GFP-TbAQP2 Leu264Arg; conditions: Trypanosoma brucei
Description: Bloodstream-form T. brucei, Lister 427, MiTat 1.2, clone 221a and derivatives were maintained as previously described [2]; 2T1 [1] and aqp2 null strains [2] were also described previously. Strains were transfected using a Nucleofector apparatus (Lonza) in conjunction with cytomix and transformants were selected with hygromycin (2.5 μg ml^–1). ^GFPAQP expression was induced by exposing cells to 1 μg ml^–1 tetracycline for 48 h. EC50 assays were carried out using alamarBlue as described [44, 45].

[12] = IC50, inhibition of TbAQP2 glycerol permeability

T2 sequence (Q6ZXT2 whole entry): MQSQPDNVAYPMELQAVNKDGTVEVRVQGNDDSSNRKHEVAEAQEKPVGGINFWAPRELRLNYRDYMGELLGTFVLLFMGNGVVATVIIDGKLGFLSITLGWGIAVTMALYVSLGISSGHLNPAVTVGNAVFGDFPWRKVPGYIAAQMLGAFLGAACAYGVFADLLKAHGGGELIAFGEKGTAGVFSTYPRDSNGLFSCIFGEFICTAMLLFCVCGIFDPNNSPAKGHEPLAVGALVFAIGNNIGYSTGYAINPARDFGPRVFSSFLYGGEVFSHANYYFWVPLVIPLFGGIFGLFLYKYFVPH

NC(N)=O [urea]
permeability of TbAQP2 for the solute (TbAQP2 [1]): showed permeability

N [NH4 ^+, ammonium]
NH4+ uptake on TbAQP2 expression (TbAQP2 [2]): neither expression of TbAQP2 nor TbAQP3 enhanced the NH4 ^+ uptake
NH4+ uptake on TbAQP3 expression (TbAQP3 [3]; pH 5.5, NH4+ as sole nitrogen source, versus cells without ammonium transporter): neither expression of TbAQP2 nor TbAQP3 enhanced the NH4 ^+ uptake

[Cl][Au]([Cl])[Cl].c1cnc2c(c1)ccc1cccnc12 [auphen]
IC50 (other AQPs): 0.8 µM

NCC(O)CO (stereo not shown) [3-aminopropane-1,2-diol]
permeability of TbAQP2 for the solute (TbAQP2 [1]): did not pass
pKa [4]: 9.2

N#Cc1ccc(OCCCCCOc2ccc(C(=N)N)cc2)cc1 [nitrile-pentamidine]
IC50 (TbAQP2 [5]; [12]): 0.18 µM

COc1ccc(C(=N)N)cc1 [4-methoxy-benzamidine]
inhibition of TbAQP2 (in words) (TbAQP2 [6]): incapable of inhibiting TbAQP2

CCCOc1ccc(C(=N)N)cc1 [4-propoxy-benzamidine]
maximal inhibition of TbAQP2 (TbAQP2 [6]): 60%
IC50 (TbAQP2 [5]; [12]): 2800 µM

CN [methylammonium]
permeability of TbAQP2 for the positively charged compound form (TbAQP2 [2]; not told): impermeable
permeability of TbAQP3 for the positively charged compound form (TbAQP3 [3]; 50 mM methylammonium, pH 5.5, yeast survival): impermeable

CCCCCOc1ccc(C(=N)N)cc1 [4-pentoxy-benzamidine]
IC50 (TbAQP2 [5]; [12]): 87 µM

OCC(O)CO [glycerol]
permeability of TbAQP2 for the solute (TbAQP2 [1]): showed permeability

N=CN [formamidine]
permeability of TbAQP2 for the solute (TbAQP2 [1]): did not pass
pKa [4]: 13

N=C(N)c1ccc(OCCCCCOc2ccc(C(=N)N)cc2)cc1 [pentamidine]
pentamidine susceptibility of yeast on expression of TbAQP2 (yeast [7]): did not increase the susceptibility
solubility [8]: low solubility
block of TbAQP2 glycerol permeability (TbAQP2 [6]; not told): fully blocked
reduced affinity versus pH 7.2 (TbAQP2 [6]; pH 2.5): 8 times
reduced affinity versus pH 7.2 (TbAQP2 [6]; pH 3.5): 3 times
effect on glycerol permeability of TbAQP3 (TbAQP3 [9]): unaffected
IC50 (TbAQP2 [5]; [12]): 0.13 µM
IC50 (TbAQP2 [5]; IC50, pentamidine inhibition of TbAQP2, pH 2.5): 1.1 µM
IC50 (TbAQP2 [5]; IC50, pentamidine inhibition of TbAQP2, pH 3.5): 0.45 µM
cytotoxicity to yeast (yeast [10]): cytotoxic
pKa [4]: 12.1
EC50 [11]: 0.103 µM
